Experimental data: patent publication US8097612B2 (priority 2006, dated 2012)

Assays:
[1] = target: F1Fo-ATPase; assay: Inhibition of the F1Fo-ATPase; format: biochemical; settings: binds to the OSCP in F1
From the text: F1Fo-ATPase inhibitors are invaluable tools for mechanistic studies of the F1Fo-ATPase (see, e.g., James A M, et al., J Biomed Sci 2002; 9:475-87; herein incorporated by reference in its entirety). Because F1Fo-ATPase inhibitors are often cytotoxic, they have been explored as drugs for cancer and other hyperproliferative disorders. Macrolides (e.g., oligomycin and apoptolidin) are non-competitive inhibitors of the F1Fo-ATPase (see, e.g., Salomon A R, et al., PNAS 2000; 97:14766-71; Salomon A R, et al., Chem Biol 2001; 8:71-80; herein incorporated by reference in its entirety). Macrolides bind to Fo which blocks proton flow through the channel resulting in inhibition of the F1Fo-ATPase. Macrolides are potent (e.g., the IC50 for oligomycin=10 nM) and lead to large decreases in [ATP]. As such, macrolides have an unacceptably narrow therapeutic index and are highly toxic (e.g., the LD50 for oligomycin in rodents is two daily doses at 0.5 mg/kg) (see, e.g., Kramar R, et al., Agents & Actions 1984, 15:660-63; herein incorporated by reference in its entirety). Other inhibitors of F1Fo-ATPase include Bz-423, which binds to the OSCP in F1 (as described elsewhere herein). Bz-423 has an Ki˜9 μM.

[2] = test system: rodents; settings: two daily doses; cited from earlier work
[3] = target: F1Fo-ATPase; settings: macrolide, non-competitive inhibitor binding to Fo; read-out: IC50 for inhibition of the F1Fo-ATPase; cited from earlier work

CN1C(=O)C(Cc2ccc3ccccc3c2)N=C(c2ccc(O)cc2)c2cc(Cl)ccc21 (stereo not drawn) [Bz-423]
Ki [1]: ~9 µM

CC[C@H]1/C=C/C=C/C[C@@H](C)[C@H](O)[C@@](C)(O)C(=O)[C@@H](C)[C@H](O)[C@@H](C)C(=O)[C@@H](C)[C@H](O)[C@@H](C)/C=C/C(=O)O[C@@H]2[C@H](C)[C@H](CC1)O[C@]1(CC[C@H](C)[C@H](C[C@@H](C)O)O1)[C@H]2C [oligomycin]
LD50 [2]: 0.5 mg/kg
IC50 [3]: 0.01 µM
